Experimental data reported in PMC4770715, “LIM kinase inhibitors disrupt mitotic microtubule organization and impair tumor cell proliferation” (Oncotarget, 2015).

Legend:
Test in all cases: biochemical
Design in all cases: KINOMEscan active-site competition binding, percent of control (100 = no competition)
Conditions in all cases: competition binding, percent control
GSK3A = GSK3A (Homo sapiens, UniProt P49840)
TRKC = target: T1, TRKC (Homo sapiens, UniProt Q16288)
T1 construct: gene NTRK3

IRAK3 = IRAK3 (Homo sapiens, UniProt Q9Y616)
PAK7 = target: T2, PAK7 (Homo sapiens, UniProt Q9P286)
T2 construct: gene PAK5

KIT(D816V) = KIT(D816V) (Homo sapiens, UniProt P10721, D816V)
TIE2 = target: T3, TIE2 (Homo sapiens, UniProt Q02763)
T3 construct: gene TEK

TNK2 = TNK2 (Homo sapiens, UniProt Q07912)
EGFR(L858R,T790M) = EGFR(L858R,T790M) (Homo sapiens, UniProt P00533, L858R/T790M)
DAPK3 = DAPK3 (Homo sapiens, UniProt O43293)
FLT3(K663Q) = FLT3(K663Q) (Homo sapiens, UniProt P36888, K663Q)
SNRK = SNRK (Homo sapiens, UniProt Q9NRH2)
IKK-beta = target: T4, IKK-beta (Homo sapiens, UniProt O14920)
T4 construct: gene IKBKB

TNK1 = TNK1 (Homo sapiens, UniProt Q13470)
FLT3(N841I) = FLT3(N841I) (Homo sapiens, UniProt P36888, N841I)
ACVR2B = ACVR2B (Homo sapiens, UniProt Q13705)
TYRO3 = TYRO3 (Homo sapiens, UniProt Q06418)
EIF2AK1 = EIF2AK1 (Homo sapiens, UniProt Q9BQI3)
PRKR = target: T5, PRKR (Homo sapiens, UniProt P19525)
T5 construct: gene EIF2AK2

DAPK2 = DAPK2 (Homo sapiens, UniProt Q9UIK4)
[1] = target: T6, RSK4(Kin.Dom.2-C-terminal) (Homo sapiens, UniProt Q9UK32)
T6 construct: gene RPS6KA6; Kin.Dom.2-C-terminal

EPHA2 = EPHA2 (Homo sapiens, UniProt P29317)
NLK = NLK (Homo sapiens, UniProt Q9UBE8)

TNK1, sequence (Q13470 whole entry): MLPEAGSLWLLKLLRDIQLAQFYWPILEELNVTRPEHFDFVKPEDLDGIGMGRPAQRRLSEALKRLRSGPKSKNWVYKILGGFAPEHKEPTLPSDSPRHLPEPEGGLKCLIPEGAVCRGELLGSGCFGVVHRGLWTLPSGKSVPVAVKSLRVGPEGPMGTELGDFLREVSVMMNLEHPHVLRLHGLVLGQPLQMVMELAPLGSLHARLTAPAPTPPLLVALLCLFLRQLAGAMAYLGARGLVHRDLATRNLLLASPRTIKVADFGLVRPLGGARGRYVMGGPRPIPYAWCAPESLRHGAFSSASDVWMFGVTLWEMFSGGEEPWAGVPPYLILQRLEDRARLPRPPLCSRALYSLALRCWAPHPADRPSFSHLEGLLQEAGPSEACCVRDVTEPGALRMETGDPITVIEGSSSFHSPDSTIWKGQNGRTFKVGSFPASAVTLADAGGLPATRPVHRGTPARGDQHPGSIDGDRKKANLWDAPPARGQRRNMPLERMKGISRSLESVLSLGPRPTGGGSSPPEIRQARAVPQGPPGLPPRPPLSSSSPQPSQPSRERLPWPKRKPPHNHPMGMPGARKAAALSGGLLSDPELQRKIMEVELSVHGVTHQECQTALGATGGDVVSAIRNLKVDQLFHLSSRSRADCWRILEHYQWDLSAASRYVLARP
EGFR(L858R,T790M), sequence (P00533 whole entry T790M/L858R): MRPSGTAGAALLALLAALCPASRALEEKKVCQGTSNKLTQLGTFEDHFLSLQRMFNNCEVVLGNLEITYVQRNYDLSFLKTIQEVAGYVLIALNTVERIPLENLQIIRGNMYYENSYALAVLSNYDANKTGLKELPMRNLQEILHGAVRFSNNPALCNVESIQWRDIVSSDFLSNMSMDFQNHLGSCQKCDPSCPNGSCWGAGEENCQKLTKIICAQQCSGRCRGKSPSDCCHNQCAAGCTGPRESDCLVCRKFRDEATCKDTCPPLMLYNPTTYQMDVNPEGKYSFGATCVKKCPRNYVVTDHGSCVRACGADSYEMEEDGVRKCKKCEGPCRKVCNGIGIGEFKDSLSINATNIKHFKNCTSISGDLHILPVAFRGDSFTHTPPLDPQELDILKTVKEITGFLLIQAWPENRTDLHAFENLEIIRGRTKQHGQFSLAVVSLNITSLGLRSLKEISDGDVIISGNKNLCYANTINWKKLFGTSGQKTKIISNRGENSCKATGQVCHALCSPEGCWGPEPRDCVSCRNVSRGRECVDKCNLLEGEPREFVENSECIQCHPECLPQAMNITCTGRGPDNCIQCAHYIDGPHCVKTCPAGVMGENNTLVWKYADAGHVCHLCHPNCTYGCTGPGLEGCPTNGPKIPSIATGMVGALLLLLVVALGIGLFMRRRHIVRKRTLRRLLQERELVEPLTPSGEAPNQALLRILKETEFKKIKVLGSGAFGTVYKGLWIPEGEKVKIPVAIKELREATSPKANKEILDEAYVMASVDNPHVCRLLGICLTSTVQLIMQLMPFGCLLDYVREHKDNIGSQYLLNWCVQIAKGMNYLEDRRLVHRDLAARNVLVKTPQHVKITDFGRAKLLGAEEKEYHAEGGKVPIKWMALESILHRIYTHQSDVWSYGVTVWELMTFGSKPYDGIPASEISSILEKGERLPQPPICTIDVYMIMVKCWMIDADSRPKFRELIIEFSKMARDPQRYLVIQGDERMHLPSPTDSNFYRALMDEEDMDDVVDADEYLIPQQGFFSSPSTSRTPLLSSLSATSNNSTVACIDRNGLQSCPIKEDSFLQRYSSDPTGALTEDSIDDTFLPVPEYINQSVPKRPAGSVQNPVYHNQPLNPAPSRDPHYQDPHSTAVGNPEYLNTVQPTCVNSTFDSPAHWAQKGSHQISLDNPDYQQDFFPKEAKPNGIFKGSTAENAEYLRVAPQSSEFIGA
ACVR2B, sequence (Q13705 whole entry): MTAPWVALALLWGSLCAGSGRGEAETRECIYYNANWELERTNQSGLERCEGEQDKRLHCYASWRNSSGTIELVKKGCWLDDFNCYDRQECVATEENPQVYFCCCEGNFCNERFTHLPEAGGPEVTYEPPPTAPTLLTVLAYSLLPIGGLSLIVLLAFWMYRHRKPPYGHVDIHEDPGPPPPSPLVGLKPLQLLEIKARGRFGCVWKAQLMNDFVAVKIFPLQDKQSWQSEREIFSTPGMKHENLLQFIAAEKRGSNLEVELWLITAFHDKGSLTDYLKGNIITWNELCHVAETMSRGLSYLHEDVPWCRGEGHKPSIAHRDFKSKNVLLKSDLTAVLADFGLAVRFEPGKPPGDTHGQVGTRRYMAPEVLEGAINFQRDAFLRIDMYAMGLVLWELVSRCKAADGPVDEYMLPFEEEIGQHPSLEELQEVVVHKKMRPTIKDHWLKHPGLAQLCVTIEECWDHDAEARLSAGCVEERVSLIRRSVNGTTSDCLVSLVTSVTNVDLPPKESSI
T6 sequence (Q9UK32 whole entry): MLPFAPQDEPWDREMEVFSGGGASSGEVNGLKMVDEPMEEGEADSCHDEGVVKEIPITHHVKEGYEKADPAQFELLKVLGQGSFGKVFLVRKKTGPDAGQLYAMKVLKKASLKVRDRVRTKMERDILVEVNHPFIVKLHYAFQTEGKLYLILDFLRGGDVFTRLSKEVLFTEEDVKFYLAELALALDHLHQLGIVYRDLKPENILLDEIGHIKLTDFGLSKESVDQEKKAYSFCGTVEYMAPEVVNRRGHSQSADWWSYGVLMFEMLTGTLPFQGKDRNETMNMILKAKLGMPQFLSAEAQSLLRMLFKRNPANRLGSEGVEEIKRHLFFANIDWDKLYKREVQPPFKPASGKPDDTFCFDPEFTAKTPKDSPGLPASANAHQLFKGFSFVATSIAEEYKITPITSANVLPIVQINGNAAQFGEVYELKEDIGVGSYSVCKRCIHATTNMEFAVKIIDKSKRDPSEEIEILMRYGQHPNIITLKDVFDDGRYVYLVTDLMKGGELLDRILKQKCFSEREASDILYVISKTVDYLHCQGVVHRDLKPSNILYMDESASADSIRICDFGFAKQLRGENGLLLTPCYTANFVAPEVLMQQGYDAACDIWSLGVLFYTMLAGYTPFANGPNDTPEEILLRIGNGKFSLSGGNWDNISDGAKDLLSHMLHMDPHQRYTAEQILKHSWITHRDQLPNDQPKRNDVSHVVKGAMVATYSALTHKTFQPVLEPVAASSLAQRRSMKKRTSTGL
DAPK2, sequence (Q9UIK4 whole entry): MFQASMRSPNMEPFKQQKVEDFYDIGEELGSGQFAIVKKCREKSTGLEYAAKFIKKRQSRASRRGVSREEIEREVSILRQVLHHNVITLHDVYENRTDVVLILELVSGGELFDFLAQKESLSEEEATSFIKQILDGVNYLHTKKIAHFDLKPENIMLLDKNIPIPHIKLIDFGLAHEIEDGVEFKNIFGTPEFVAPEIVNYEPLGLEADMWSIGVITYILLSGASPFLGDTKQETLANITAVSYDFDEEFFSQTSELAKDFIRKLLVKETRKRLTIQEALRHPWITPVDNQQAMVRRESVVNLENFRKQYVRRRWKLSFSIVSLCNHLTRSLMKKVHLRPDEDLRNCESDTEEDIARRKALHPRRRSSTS
KIT(D816V), sequence (P10721 whole entry D816V): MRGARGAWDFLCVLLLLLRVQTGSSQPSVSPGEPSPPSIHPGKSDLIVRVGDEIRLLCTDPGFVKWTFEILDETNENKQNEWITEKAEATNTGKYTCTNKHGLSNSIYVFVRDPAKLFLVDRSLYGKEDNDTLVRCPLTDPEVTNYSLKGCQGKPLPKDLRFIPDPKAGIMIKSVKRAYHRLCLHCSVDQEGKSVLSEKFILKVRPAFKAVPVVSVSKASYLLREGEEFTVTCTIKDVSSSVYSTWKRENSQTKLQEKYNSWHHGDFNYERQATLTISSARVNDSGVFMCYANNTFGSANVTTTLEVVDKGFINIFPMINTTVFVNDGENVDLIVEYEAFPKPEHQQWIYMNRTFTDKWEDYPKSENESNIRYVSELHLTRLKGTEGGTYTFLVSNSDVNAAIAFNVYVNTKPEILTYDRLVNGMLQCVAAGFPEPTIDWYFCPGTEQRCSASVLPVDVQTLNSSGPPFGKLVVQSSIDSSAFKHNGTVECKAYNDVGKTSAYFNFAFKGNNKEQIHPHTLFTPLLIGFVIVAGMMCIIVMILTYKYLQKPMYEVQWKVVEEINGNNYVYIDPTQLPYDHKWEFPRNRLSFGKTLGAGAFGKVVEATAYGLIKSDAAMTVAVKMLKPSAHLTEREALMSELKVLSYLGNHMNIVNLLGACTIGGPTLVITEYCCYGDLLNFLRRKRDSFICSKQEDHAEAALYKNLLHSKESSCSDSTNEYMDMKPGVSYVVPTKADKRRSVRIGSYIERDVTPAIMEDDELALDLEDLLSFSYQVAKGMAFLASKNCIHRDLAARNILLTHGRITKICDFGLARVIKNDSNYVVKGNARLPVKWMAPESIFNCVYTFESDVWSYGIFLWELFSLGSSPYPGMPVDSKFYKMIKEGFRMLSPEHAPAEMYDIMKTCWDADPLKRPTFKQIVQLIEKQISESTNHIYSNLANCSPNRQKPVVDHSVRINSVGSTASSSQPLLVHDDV
DAPK3, sequence (O43293 whole entry): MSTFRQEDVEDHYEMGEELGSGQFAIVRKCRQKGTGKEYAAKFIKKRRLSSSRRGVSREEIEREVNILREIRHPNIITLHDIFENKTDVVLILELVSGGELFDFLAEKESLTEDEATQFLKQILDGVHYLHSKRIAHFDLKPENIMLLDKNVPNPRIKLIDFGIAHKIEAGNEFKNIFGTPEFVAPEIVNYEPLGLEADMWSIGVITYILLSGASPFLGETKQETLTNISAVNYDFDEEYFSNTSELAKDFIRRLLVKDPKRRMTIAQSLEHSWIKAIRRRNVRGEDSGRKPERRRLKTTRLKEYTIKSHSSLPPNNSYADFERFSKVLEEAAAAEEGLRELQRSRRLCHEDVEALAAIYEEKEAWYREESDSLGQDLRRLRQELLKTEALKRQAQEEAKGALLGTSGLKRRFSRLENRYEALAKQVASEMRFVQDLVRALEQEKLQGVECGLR

## COc1ccc(-c2cnccc2-c2cnc(NC(=O)C(C)C)s2)c(C(F)(F)F)c1 [CRT0105446, N-{5-[3-(4-Methoxy-2-trifluoromethyl-phenyl)-pyridin-4-yl]-hiazol-2-yl}-isobutyramide]
GSK3A
  remaining binding at 10 µM: 56%
TRKC
  remaining binding at 10 µM: 100%
IRAK3
  remaining binding at 10 µM: 89%
PAK7
  remaining binding at 10 µM: 95%
KIT(D816V)
  remaining binding at 10 µM: 83%
TIE2
  remaining binding at 10 µM: 87%
TNK2
  remaining binding at 10 µM: 91%
EGFR(L858R,T790M)
  remaining binding at 10 µM: 91%
DAPK3
  remaining binding at 10 µM: 83%
FLT3(K663Q)
  remaining binding at 10 µM: 34%
SNRK
  remaining binding at 10 µM: 81%
IKK-beta
  remaining binding at 10 µM: 88%
TNK1
  remaining binding at 10 µM: 67%
FLT3(N841I)
  remaining binding at 10 µM: 22%
ACVR2B
  remaining binding at 10 µM: 100%
TYRO3
  remaining binding at 10 µM: 100%
EIF2AK1
  remaining binding at 10 µM: 100%
PRKR
  remaining binding at 10 µM: 81%
DAPK2
  remaining binding at 10 µM: 87%
[1]
  remaining binding at 10 µM: 16%
EPHA2
  remaining binding at 10 µM: 100%
NLK
  remaining binding at 10 µM: 57%

## Cc1ccc(-c2cnccc2-c2cnc(Nc3ccc(O)cc3)s2)c(Cl)c1 [CRT0105950, 4-{5-[3-(2-Chloro-4-methyl-phenyl)-pyridin-4-yl]-thiazol-2-ylamino}-phenol]
GSK3A
  remaining binding at 10 µM: 32%
TRKC
  remaining binding at 10 µM: 0.6%
IRAK3
  remaining binding at 10 µM: 8.1%
PAK7
  remaining binding at 10 µM: 93%
KIT(D816V)
  remaining binding at 10 µM: 2.8%
TIE2
  remaining binding at 10 µM: 44%
TNK2
  remaining binding at 10 µM: 25%
EGFR(L858R,T790M)
  remaining binding at 10 µM: 89%
DAPK3
  remaining binding at 10 µM: 44%
FLT3(K663Q)
  remaining binding at 10 µM: 0.5%
SNRK
  remaining binding at 10 µM: 100%
IKK-beta
  remaining binding at 10 µM: 88%
TNK1
  remaining binding at 10 µM: 3.7%
FLT3(N841I)
  remaining binding at 10 µM: 0%
ACVR2B
  remaining binding at 10 µM: 32%
TYRO3
  remaining binding at 10 µM: 51%
EIF2AK1
  remaining binding at 10 µM: 97%
PRKR
  remaining binding at 10 µM: 53%
DAPK2
  remaining binding at 10 µM: 53%
[1]
  remaining binding at 10 µM: 2.9%
EPHA2
  remaining binding at 10 µM: 70%
NLK
  remaining binding at 10 µM: 20%
